Active and inactive are the calls of the source. The rule behind the calls is not given here.
Assays:
RAW264.7 [1] = assay: Cytotoxicity against mouse RAW264.7 cells assessed as effect on cell viability at 50 uM measured after 24 hrs by CCK-8 assay; format: toxicity, cell-based; conditions: raw264.7, 24 h
RAW264.7 [2] = assay: Anti-inflammatory activity against LPS-induced mouse RAW264.7 cells assessed as decrease in IL-1beta gene expression by RT-qPCR analysis; format: functional, cell-based; conditions: dose 10-50 µM
RAW264.7 [3] = assay: Anti-inflammatory activity against LPS-induced mouse RAW264.7 cells assessed as reduction in TNF-alpha gene expression at 50 uM treated for 24 hrs by RT-qPCR analysis relative to control; format: functional; design: scale not given: the % may be the effect or the level left
RAW264.7 [4] = assay: Anti-inflammatory activity in mouse RAW264.7 cells assessed as inhibition of LPS-induced NO production preincubated for 1 hr followed by LPS stimulation for 24 hrs by Griess reagent assay; format: functional, cell-based; conditions: for Activity: time 25.0 hrs
RAW264.7 [5] = assay: Anti-inflammatory activity against LPS-induced mouse RAW264.7 cells assessed as inhibition in IL-6 release at 50 uM by ELISA; format: functional, cell-based
RAW264.7 [6] = assay: Anti-inflammatory activity against LPS-induced mouse RAW264.7 cells assessed as decrease in IL-6 gene expression by RT-qPCR analysis; format: functional, cell-based; conditions: dose 10-50 µM
RAW264.7 [7] = assay: Anti-inflammatory activity against LPS-induced mouse RAW264.7 cells assessed as inhibition in TNF-alpha release at 50 uM by ELISA; format: functional, cell-based
RAW264.7 [8] = assay: Anti-inflammatory activity against LPS-induced mouse RAW264.7 cells assessed as reduction in IL-1beta gene expression at 50 uM treated for 24 hrs by RT-qPCR analysis relative to control; format: functional; design: scale not given: the % may be the effect or the level left
RAW264.7 [9] = assay: Anti-inflammatory activity against LPS-induced mouse RAW264.7 cells assessed as decrease in IL-6 gene expression at 50 uM treated for 24 hrs by RT-qPCR analysis relative to control; format: functional; design: scale not given: the % may be the effect or the level left
RAW264.7 [10] = assay: Anti-inflammatory activity against LPS-induced mouse RAW264.7 cells assessed as decrease in TNF-alpha gene expression by RT-qPCR analysis; format: functional, cell-based; conditions: dose 10-50 µM
RAW264.7 [11] = assay: Anti-inflammatory activity in mouse RAW264.7 cells assessed as reduction in LPS-induced NO production at 50 uM preincubated for 1 hr followed by LPS stimulation for 24 hrs by Griess reagent assay relative to control; format: functional; design: scale not given: the % may be the effect or the level left; conditions: time 25 hrs
RAW264.7 [12] = assay: Anti-inflammatory activity against LPS-induced mouse RAW264.7 cells assessed as change in IL-6 gene expression at 50 uM treated for 24 hrs by RT-qPCR analysis; format: functional, cell-based
RAW264.7 [13] = assay: Anti-inflammatory activity against LPS-induced mouse RAW264.7 cells assessed as effect on TNF-alpha gene expression at 50 uM treated for 24 hrs by RT-qPCR analysis; format: functional, cell-based
RAW264.7 [14] = assay: Anti-inflammatory activity in mouse RAW264.7 cells assessed as inhibition of LPS-induced NO production at 25 to 50 uM preincubated for 1 hr followed by LPS stimulation for 24 hrs by Griess reagent assay; format: functional, cell-based; conditions: dose 25-50 µM, time 25.0 hrs
RAW264.7 [15] = assay: Anti-inflammatory activity against LPS-induced mouse RAW264.7 cells assessed as reduction in IL-1beta gene expression at 50 uM treated for 24 hrs by RT-qPCR analysis; format: functional, cell-based

How did the Activity (RAW264.7 [1]) turn out when `COc1c(O)cc2occ(-c3ccc(O)cc3)c(=O)c2c1O` [TECTORIGENIN] was run?
The Activity was “Non-toxic”.

What about the Activity (RAW264.7 [2]) of the same compound?
Its Activity is “Dose-dependent-effect”.

And the Activity (RAW264.7 [3])?
Its Activity is 40%.

What about the IC50 (RAW264.7 [4]) of the same compound?
The IC50 was 51.7 µM.

What about the Activity (RAW264.7 [4]) of the same compound?
Its Activity is “Dose-dependent-effect”.

What about the Activity (RAW264.7 [5]) of the same compound?
Its Activity is “Active”.

What about the Activity (RAW264.7 [6]) of the same compound?
The Activity was “Dose-dependent-effect”.

What about the Activity (RAW264.7 [7]) of the same compound?
The Activity was “Active”.

What about the Activity (RAW264.7 [8]) of the same compound?
The Activity was 90.8%.

What about the Activity (RAW264.7 [9]) of the same compound?
The Activity was 87.8%.

And the Activity (RAW264.7 [10])?
The Activity was “Dose-dependent-effect”.

What about the Activity (RAW264.7 [11]) of the same compound?
The Activity was 48.4%.

How did the Activity (RAW264.7 [12]) turn out when `COc1cc(C(=O)OC[C@H]2O[C@@H](Oc3cc4occ(-c5ccc(O)cc5)c(=O)c4c(O)c3OC)[C@H](O)[C@@H](O)[C@@H]2O)ccc1O` was run?
The Activity was “Not active; Increase In Il-6 Gene Expression Observed”.

And the Activity (RAW264.7 [1])?
Its Activity is “Non-toxic”.

And the Activity (RAW264.7 [13])?
The Activity was “Not active; Increase In Tnf-Alpha Gene Expression Observed”.

And the Activity (RAW264.7 [14])?
Its Activity is “inactive”.

And the Activity (RAW264.7 [8])?
The Activity was 4.1%.

Which results are given for `COc1c(O[C@@H]2O[C@H](CO)[C@@H](O)[C@H](O)[C@H]2O)cc2occ(-c3ccc(O)cc3)c(=O)c2c1O` [TECTORIDIN]?
Activity (RAW264.7 [12]): inactive; Activity (RAW264.7 [1]): Non-toxic; Activity (RAW264.7 [13]): inactive; Activity (RAW264.7 [14]): inactive; Activity (RAW264.7 [8]): 31.2%

For `COc1c(O[C@@H]2O[C@H](CO)[C@@H](O)[C@H](O)[C@H]2O)cc2occ(-c3ccc(O[C@@H]4O[C@H](CO)[C@@H](O)[C@H](O)[C@H]4O)cc3)c(=O)c2c1O`, which Activity (RAW264.7 [12]) is on record?
Its Activity is “inactive”.

What about the Activity (RAW264.7 [1]) of the same compound?
Its Activity is “Non-toxic”.

And the Activity (RAW264.7 [13])?
The Activity was “inactive”.

And the Activity (RAW264.7 [15])?
Its Activity is “Not active; Increase In Il-1Beta Gene Expression Observed”.

What about the Activity (RAW264.7 [14]) of the same compound?
Its Activity is “inactive”.

How did the Activity (RAW264.7 [12]) turn out when `COc1c(O[C@@H]2O[C@H](CO)[C@@H](O)[C@H](O)[C@H]2O)cc(O)c2c(=O)c(-c3ccc(O)cc3)coc12` was run?
Its Activity is “inactive”.

And the Activity (RAW264.7 [1])?
The Activity was “Non-toxic”.

And the Activity (RAW264.7 [13])?
The Activity was “inactive”.

What about the Activity (RAW264.7 [14]) of the same compound?
The Activity was “inactive”.

What about the Activity (RAW264.7 [8]) of the same compound?
The Activity was 14.4%.

With `COc1c(O)cc(O)c2c(=O)c(-c3ccc(O)cc3)coc12` [PSI-TECTORIGENIN] as the compound, how does the Activity (RAW264.7 [1]) read?
The Activity was “Non-toxic”.

And the Activity (RAW264.7 [2])?
Its Activity is “Dose-dependent-effect”.

What about the Activity (RAW264.7 [3]) of the same compound?
Its Activity is 46.3%.

And the IC50 (RAW264.7 [4])?
Its IC50 is 26.8 µM.

And the Activity (RAW264.7 [4])?
The Activity was “Dose-dependent-effect”.

What about the Activity (RAW264.7 [5]) of the same compound?
Its Activity is “Active”.

What about the Activity (RAW264.7 [6]) of the same compound?
Its Activity is “Dose-dependent-effect”.

What about the Activity (RAW264.7 [7]) of the same compound?
The Activity was “Active”.

And the Activity (RAW264.7 [8])?
Its Activity is 61%.

And the Activity (RAW264.7 [9])?
The Activity was 56%.

And the Activity (RAW264.7 [10])?
The Activity was “Dose-dependent-effect”.

And the Activity (RAW264.7 [11])?
The Activity was ~100%.
